According to patent publication US8546391B2, “Thiadiazole and oxadiazole derivatives, preparation thereof and therapeutic use thereof” (Sanofi, priority 2009, dated 2013):

In the case of `O=C(O)C[C@H]1CC[C@H](c2ccc(C(=O)Nc3nnc(CC4CCC(O)CC4)s3)cc2)CC1` (stereo partly drawn) [Compound 79, trans-(4-{4-[5-(4-hydroxycyclohexylmethyl)[1,3,4]thiadiazol-2-ylcarbamoyl]phenyl}-cyclohexyl)acetic acid], the melting point is reported as > 250 °C. `O=C(O)C[C@H]1CC[C@H](c2ccc(C(=O)Nc3nnc(C4CC(c5ccccc5)C4)s3)cc2)CC1` (stereo partly drawn) [Compound 97, trans-(4-{4-[5-(3-phenylcyclobutyl)[1,3,4]thiadiazol-2-ylcarbamoyl]phenyl}cyclohexyl)-acetic acid] showed a melting point of 247 °C. With `O=C(O)CC1CCC(c2ccc(C(=O)Nc3nnc(COc4ccc(F)cc4)s3)cc2)CC1` (centres unmarked) [Compound 24, (4-{4-[5-(4-fluorophenoxymethyl)[1,3,4]thiadiazol-2-ylcarbamoyl]phenyl}cyclohexyl)-acetic acid] the melting point was 275 °C. Work on `O=C(O)C[C@H]1CC[C@H](c2ccc(C(=O)Nc3nnc(CCN4CCOCC4)s3)cc2)CC1` [Compound 48, trans-(4-{4-[5-(2-morpholin-4-ylethyl)[1,3,4]thiadiazol-2-ylcarbamoyl]phenyl}cyclohexyl)acetic acid] yielded a melting point of 213 °C. Compound `O=C(O)COC1CCC(c2ccc(C(=O)Nc3nnc(Cc4ccccc4)s3)cc2)CC1` (stereo not drawn) [Compound 46, trans-{4-[4-(5-benzyl[1.3.4]thiadiazol-2-ylcarbamoyl)phenyl]cyclohexyloxy}acetic acid] has a melting point of 250 to 255 °C. In the case of `O=C(Nc1nnc(CCC2CCCC2)s1)c1ccc(O[C@H]2CC[C@@H](C(=O)O)CC2)cc1` [Compound 57, cis-4-{4-[5-(2-cyclopentylethyl)[1,3,4]thiadiazol-2-ylcarbamoyl]phenoxy}cyclohexanecarboxylic acid], the melting point is reported as 270 °C. With `O=C(O)C[C@H]1CC[C@H](c2ccc(C(=O)Nc3nnc(N4CCOCC4)s3)cc2)CC1` [Compound 49, trans-{4-[4-(5-morpholin-4-yl[1,3,4]thiadiazol-2-ylcarbamoyl)phenyl]cyclohexyl}acetic acid] the melting point was > 250 °C. Work on `CC(C)(C)c1nnc(NC(=O)c2ccc(C3CCC(CC(=O)O)CC3)cc2)s1` (centres unmarked) [Compound 14, {4-[4-(5-tert-butyl[1,3,4]thiadiazol-2-ylcarbamoyl)phenyl]cyclohexyl}acetic acid] yielded a melting point of 298 °C. Compound `O=C(O)C[C@H]1CC[C@H](c2ccc(C(=O)Nc3nnc(C[S+]([O-])Cc4ccccc4)s3)cc2)CC1` (stereo partly drawn) [Compound 95, trans-{4-[4-(5-phenylmethanesulfinylmethyl[1.3.4]thiadiazol-2-ylcarbamoyl)phenyl]cyclohexyl}acetic acid] has a melting point of 241 °C. `CC(C)Cc1nnc(NC(=O)c2ccc(C3CCC(CC(=O)O)CC3)cc2)s1` (centres unmarked) [Compound 19, {4-[4-(5-isobutyl[1,3,4]thiadiazol-2-ylcarbamoyl)phenyl]cyclohexyl}acetic acid] gave a melting point of 263 °C. `O=C(O)CC1CCC(c2ccc(C(=O)Nc3nnc(CC4CCCC4)s3)cc2)CC1` (centres unmarked) [Compound 17, {4-[4-(5-cyclopentylmethyl[1,3,4]thiadiazol-2-ylcarbamoyl)phenyl]cyclohexyl}acetic acid] gave a melting point of 268 °C. `O=C(O)C[C@H]1CC[C@H](c2ccc(C(=O)Nc3nnc([C@H]4C[C@@H](c5ccccc5)C4)s3)cc2)CC1` [Compound 75, trans-(4-{4-[5-(3-phenylcyclobutyl)[1,3,4]thiadiazol-2-ylcarbamoyl]phenyl}cyclohexyl)acetic acid] showed a melting point of 258 °C. Compound `O=C(Nc1nncs1)c1ccc(O[C@H]2CC[C@@H](C(=O)O)CC2)cc1` [Compound 61, cis-4-[4-([1,3,4]thiadiazol-2-ylcarbamoyl)phenoxy]cyclohexanecarboxylic acid] has a melting point of 277 °C. For `O=C(O)C[C@H]1CC[C@H](c2ccc(C(=O)Nc3nnc(Cc4cc(F)cc(F)c4)s3)cc2)CC1` [Compound 78, trans-(4-{4-[5-(3,5-difluorobenzyl)[1,3,4]thiadiazol-2-ylcarbamoyl]phenyl}cyclohexyl)-acetic acid], the melting point was 294 °C.
